The record followed here is PubChem BioAssay (NCI).

Test systems include NCI/ADR-RES ovarian; BT-549 breast; NCI-H226 lung; TK-10 renal; SNB-19 CNS; HOP-92 NSCLC; A549 NSCLC; MCF7 breast; M14 melanoma; SK-MEL-5 melanoma.
What all share (experiment): growth of human tumour cells (NCI), 48 h

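Where inhibition never reached the appropriate level, the endpoint shown equals the highest concentration tested. Otherwise, values were interpolated linearly from a five-concentration, 48-hour dose response in 96-well plates. Definition used: TGI = concentration required for complete inhibition of growth.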 Some results are limits rather than exact numbers.

As for `OC1(c2ccccc2)CCN(Cc2c[nH]c3ccccc23)CC1`, the TGI with NCI/ADR-RES ovarian, in the test on BT-549 breast, in the test on NCI-H226 lung, in the test with TK-10 renal, in the test on SNB-19 CNS and with HOP-92 NSCLC was more than 100 µM throughout. In addition, the TGI with A549 NSCLC was more than 100 µM; with MCF7 breast, more than 100 µM; with M14 melanoma, 35 µM; in the test on SK-MEL-5 melanoma, more than 100 µM.

As for `CC(NC(=O)C(NC(=O)CNC(=O)OC(C)(C)C)C(C)C)C(=O)Oc1c(Cl)c(Cl)c(Cl)c(Cl)c1Cl` (stereo not given), the TGI with NCI/ADR-RES ovarian was determined as 39.1 µM; with BT-549 breast, 51.2 µM; with NCI-H226 lung, 52.6 µM; in the test with TK-10 renal, 77.2 µM; in the test with SNB-19 CNS, 96 µM; in the test with HOP-92 NSCLC it was 41.3 µM. In addition, the TGI amounted to 57.5 µM in the test with A549 NSCLC, 74.1 µM in the test with MCF7 breast, 39.5 µM in the test with M14 melanoma and 33.9 µM in the test with SK-MEL-5 melanoma.

Regarding `CSCCC(N)C(=O)NCCNc1ccc(NCCNC(=O)C(N)CCSC)c2c1C(=O)c1ccccc1C2=O` (stereo not given), the TGI in the test with NCI/ADR-RES ovarian worked out at 16.2 µM; in the test on BT-549 breast, 2.93 µM; with NCI-H226 lung it was 7.46 µM; in the test on TK-10 renal it was 9.3 µM; in the test with SNB-19 CNS, 5.81 µM; in the test on HOP-92 NSCLC, 3.4 µM. In addition, the TGI in the test with A549 NSCLC came out at 3.66 µM; in the test with MCF7 breast, 4.77 µM; in the test with M14 melanoma, 12 µM; with SK-MEL-5 melanoma, 13.2 µM.

On to `NCCCN(CCCN(C(=O)Nc1ccccc1)c1ccccc1)C(=O)Nc1ccccc1`, for which the TGI in the test with NCI/ADR-RES ovarian is more than 100 µM; in the test with BT-549 breast it was more than 100 µM; in the test with NCI-H226 lung it was more than 100 µM; in the test on TK-10 renal it was more than 100 µM; in the test with SNB-19 CNS it was more than 100 µM; in the test with HOP-92 NSCLC, 92 µM. Also, the TGI is more than 100 µM with A549 NSCLC, more than 100 µM in the test with MCF7 breast, 44.8 µM in the test with M14 melanoma and 40.7 µM in the test on SK-MEL-5 melanoma.

In the case of `CCNC(=S)N=Nc1c(O)[nH]c2ccc([N+](=O)[O-])cc12`, the TGI with NCI/ADR-RES ovarian, in the test with BT-549 breast, in the test with NCI-H226 lung, with TK-10 renal, with SNB-19 CNS and in the test with HOP-92 NSCLC was more than 100 µM throughout. For the same molecule, the TGI with A549 NSCLC, with MCF7 breast, in the test on M14 melanoma and in the test with SK-MEL-5 melanoma was more than 100 µM throughout.

For the molecule `CSCSSC`, the TGI with NCI/ADR-RES ovarian, with BT-549 breast, in the test on NCI-H226 lung, in the test with TK-10 renal, in the test with SNB-19 CNS and in the test with HOP-92 NSCLC was more than 100 µM throughout. The TGI in the test on A549 NSCLC, in the test with MCF7 breast, with M14 melanoma and in the test with SK-MEL-5 melanoma was more than 100 µM each time.

Take `O=c1cc(N2CCCC2)[nH]c(=O)n1Cc1ccccc1`: the TGI with NCI/ADR-RES ovarian, in the test with BT-549 breast, in the test on NCI-H226 lung, in the test on TK-10 renal, with SNB-19 CNS and in the test with HOP-92 NSCLC was more than 100 µM each time. In addition, the TGI with A549 NSCLC, in the test with MCF7 breast, in the test with M14 melanoma and in the test on SK-MEL-5 melanoma was more than 100 µM throughout.

`Cc1ccc([S@](=O)c2occc2C=O)cc1`: the TGI was more than 61 µM with NCI/ADR-RES ovarian; 25.5 µM with BT-549 breast; 38 µM in the test on NCI-H226 lung; 18.6 µM in the test on TK-10 renal; 18 µM with SNB-19 CNS; 7.78 µM with HOP-92 NSCLC. The TGI in the test with A549 NSCLC is 46.5 µM; in the test with MCF7 breast, 13.3 µM; in the test on M14 melanoma, 20.7 µM; with SK-MEL-5 melanoma it was 23.1 µM.

Turning to `Cc1csc(NC23CC4CC(CC(C4)C2)C3)[n+]1C(P(=O)([O-])O)P(=O)(O)O` (stereo not given), the TGI in the test on NCI/ADR-RES ovarian, in the test with BT-549 breast, with NCI-H226 lung, in the test on TK-10 renal, in the test with SNB-19 CNS and in the test with HOP-92 NSCLC was more than 100 µM in each case. The TGI in the test on A549 NSCLC, in the test with MCF7 breast, in the test on M14 melanoma and with SK-MEL-5 melanoma was more than 100 µM throughout.

With `C[C@H](NC(=O)C(Cc1ccccc1)(Cc1ccc(O)cn1)NC(=O)c1ccccc1)c1ccccc1` (stereo not given in full), the TGI was determined as 44.6 µM in the test with NCI/ADR-RES ovarian; 36.9 µM in the test with BT-549 breast; 36.5 µM in the test on NCI-H226 lung; 94.8 µM in the test with TK-10 renal; 39.4 µM in the test with SNB-19 CNS; 38.8 µM with HOP-92 NSCLC. Besides, the TGI was found to be 31.6 µM with A549 NSCLC, 75.5 µM in the test with MCF7 breast, 29.4 µM in the test with M14 melanoma and 33.7 µM in the test on SK-MEL-5 melanoma.

`Cc1ccc(OCC2OC(n3cnc4nc(N)nc(Cl)c43)CC2Oc2ccc(C)cc2)cc1` (stereo not given): the TGI in the test on NCI/ADR-RES ovarian was 47.2 µM; in the test on BT-549 breast, more than 100 µM; in the test with NCI-H226 lung it was 47.5 µM; with TK-10 renal, more than 100 µM; in the test on SNB-19 CNS, 30.4 µM; in the test with HOP-92 NSCLC, 70 µM. Also, the TGI was found to be 58.3 µM in the test with A549 NSCLC, 49 µM in the test on MCF7 breast, 41.2 µM with M14 melanoma and 41.3 µM with SK-MEL-5 melanoma.

In the case of `Cc1cc(-c2nc3cc(F)ccc3s2)ccc1NC(=O)[C@@H](N)CCCCN`, the TGI was 37.2 µM in the test on NCI/ADR-RES ovarian; 26.9 µM in the test with BT-549 breast; 18.1 µM in the test on NCI-H226 lung; 0.903 µM in the test with TK-10 renal; 28.9 µM in the test on SNB-19 CNS; 30.3 µM with HOP-92 NSCLC. Further, the TGI stood at 3.88 µM in the test with A549 NSCLC, 11.8 µM with MCF7 breast, 4.86 µM with M14 melanoma and 27.1 µM in the test with SK-MEL-5 melanoma.
